These results are taken from patent publication US20250161216A1, “CATIONIC LIPID ANALOGUES, COMPOSITIONS AND USES THEREOF” (GUANGZHOU LIDE BIOMEDICINE TECHNOLOGY CO., LTD., priority 2022, published 2025).

The assay relates to C57BL/6 mice. Briefly: In vivo expression level of Luciferase-mRNA delivered by intravenous injection (bioluminescence imaging). Particulars: mRNA-loaded nanoparticles, intravenous (tail vein), 5 μg Luciferase-mRNA, 6 hours. As to the method: Luciferase-mRNA was used as an mRNA model; and the cationic lipid analogues of Examples 1-5 were used to prepare drug-loaded nanoparticles according to the method of Example 6.
200 μL of nanoparticles containing 5 μg Luciferase-mRNA or the drug-loaded nanoparticles prepared above were injected into tail veins of 6-8 week-old C57BL/6 mice, and 200 μL of 1×PBS solution containing 3 mg D-Luciferin potassium salt was intraperitoneally injected into the mice 6 hours later. After waiting for 10 minutes, an in vivo expression level of the mRNA was evaluated by bioluminescence imaging.

`CCCCCCCC/C=C\CCCCCCCC(=O)N(CCCN(C)C)C(C(=O)NCCN(C)CCNC(=O)C(C(C)C)N(CCCN(C)C)C(=O)CCCCCCC/C=C\CCCCCCCC)C(C)C` (stereo not drawn) [A1I4R2C18-1]: the Bioluminescence intensity (compounds of Example 2) was found to be 8.80E+02.

Consider `CCCCC/C=C\C/C=C\CCCCCCCC(=O)N(CCCN(C)C)C(C(=O)NCCN(C)CCNC(=O)C(C(C)C)N(CCCN(C)C)C(=O)CCCCCCC/C=C\C/C=C\CCCCC)C(C)C` (stereo not drawn) [A1I4R2C18-2], for which, where the note is “compounds of Example 2”, the “Fluorescence intensity of spleen” value was determined as 3.18E+03.

Take `CCCCCCCCCCCCCCCCCC(=O)N(CCCN(C)C)C(C(=O)NCCN(C)CCNC(=O)C(C(C)C)N(CCCN(C)C)C(=O)CCCCCCCCCCCCCCCCC)C(C)C` (stereo not drawn) [A1I4R2C18]: the “Fluorescence intensity of spleen” value (compounds of Example 2) was 1.79E+04.

With `CCCCCCCC/C=C\CCCCCCCC(=O)N(CCN1CCCCCC1)C(C(=O)NCCN(C)CCNC(=O)C(C(C)C)N(CCN1CCCCCC1)C(=O)CCCCCCC/C=C\CCCCCCCC)C(C)C` (stereo not drawn) [A1I4R13C18-1], the “Fluorescence intensity of spleen” value (compounds of Example 2) was determined as 2.67E+03.

Take `CCCCC/C=C\C/C=C\CCCCCCCC(=O)N(CCN1CCCCCC1)C(C(=O)NCCN(C)CCNC(=O)C(C(C)C)N(CCN1CCCCCC1)C(=O)CCCCCCC/C=C\C/C=C\CCCCC)C(C)C` (stereo not drawn) [A1I4R13C18-2]: the “Fluorescence intensity of spleen” value (compounds of Example 2) stood at 2.85E+04.

On to `CCCCCCCCCCCCCCCCCC(=O)N(CCN1CCCCCC1)C(C(=O)NCCN(C)CCNC(=O)C(C(C)C)N(CCN1CCCCCC1)C(=O)CCCCCCCCCCCCCCCCC)C(C)C` (stereo not drawn) [A1I4R13C18], for which, where the note is “compounds of Example 2”, the Bioluminescence intensity was 5.76E+02.

With `CCCCCCCCCCCCCCCCCC(=O)N(CCC)C(C(=O)NCCN(C)CCNC(=O)C(C(C)C)N(CCC)C(=O)CCCCCCCCCCCCCCCCC)C(C)C` (stereo not drawn) [A1I4R21C18], the “Fluorescence intensity of spleen” value (compounds of Example 2) worked out at 3.46E+04.

Consider `CCCCCCCCCCCC(=O)N(CCO)C(C(=O)NCCN(C)CCNC(=O)C(C(C)C)N(CCO)C(=O)CCCCCCCCCCC)C(C)C` (stereo not drawn) [A1I4R22C12], for which the “Fluorescence intensity of spleen” value (compounds of Example 2) is 3.90E+03.

Take `CCCCCCCCCCCCCC(=O)N(CCO)C(C(=O)NCCN(C)CCNC(=O)C(C(C)C)N(CCO)C(=O)CCCCCCCCCCCCC)C(C)C` (stereo not drawn) [A1I4R22C14]: the “Fluorescence intensity of spleen” value (compounds of Example 2) is 2.30E+03.

`CCCCCCCCCCCCCCCC(=O)N(CCO)C(C(=O)NCCN(C)CCNC(=O)C(C(C)C)N(CCO)C(=O)CCCCCCCCCCCCCCC)C(C)C` (stereo not drawn) [A1I4R22C16]: for the setting “compounds of Example 2”, the “Fluorescence intensity of spleen” value was determined as 2.30E+03.

Regarding `CCCCCCCCCCCCCCCCCC(=O)N(CCO)C(C(=O)NCCN(C)CCNC(=O)C(C(C)C)N(CCO)C(=O)CCCCCCCCCCCCCCCCC)C(C)C` (stereo not drawn) [A1I4R22C18], the “Fluorescence intensity of spleen” value (compounds of Example 2) was determined as 1.10E+05.

Turning to `CCCCCCSSCCC(=O)N(CCO)C(C(=O)NCCN(C)CCNC(=O)C(C(C)C)N(CCO)C(=O)CCSSCCCCCC)C(C)C` (stereo not drawn) [A1I4R22S11], the “Fluorescence intensity of spleen” value (compounds of Example 2) was determined as 1.00E+03.

`CCCCCCCCSSCCC(=O)N(CCO)C(C(=O)NCCN(C)CCNC(=O)C(C(C)C)N(CCO)C(=O)CCSSCCCCCCCC)C(C)C` (stereo not drawn) [A1I4R22S13]: the “Fluorescence intensity of spleen” value (compounds of Example 2) is recorded as 5.90E+03.

In the case of `CCCCCCCCCCSSCCC(=O)N(CCO)C(C(=O)NCCN(C)CCNC(=O)C(C(C)C)N(CCO)C(=O)CCSSCCCCCCCCCC)C(C)C` (stereo not drawn) [A1I4R22S15], for the setting “compounds of Example 2”, the “Fluorescence intensity of spleen” value turned out to be 4.10E+03.

Turning to `CCCCCCCCCCCCSSCCC(=O)N(CCO)C(C(=O)NCCN(C)CCNC(=O)C(C(C)C)N(CCO)C(=O)CCSSCCCCCCCCCCCC)C(C)C` (stereo not drawn) [A1I4R22S17], the “Fluorescence intensity of spleen” value (compounds of Example 2) was found to be 1.80E+04.

With `CCCCCCCCCCCCCCSSCCC(=O)N(CCO)C(C(=O)NCCN(C)CCNC(=O)C(C(C)C)N(CCO)C(=O)CCSSCCCCCCCCCCCCCC)C(C)C` (stereo not drawn) [A1I4R22S19], the “Fluorescence intensity of spleen” value (compounds of Example 2) is 2.50E+04.

As to `CCCCCCCC(=O)N(CCO)C(C(=O)NCCN(CCNC(=O)C(C(C)C)N(CCO)C(=O)CCCCCCC)CCNC(=O)C(C(C)C)N(CCO)C(=O)CCCCCCC)C(C)C` (stereo not drawn) [A1I5R22C8], under “compounds of Example 3”, the “Fluorescence intensity of spleen” value worked out at 1.50E+05.

With `CCCCCCCCCC(=O)N(CCO)C(C(=O)NCCN(CCNC(=O)C(C(C)C)N(CCO)C(=O)CCCCCCCCC)CCNC(=O)C(C(C)C)N(CCO)C(=O)CCCCCCCCC)C(C)C` (stereo not drawn) [A1I5R22C10], the “Fluorescence intensity of spleen” value (compounds of Example 3) is 3.00E+05.
